One molecule from US20260224588A1, “BENZODIAZEPINONE-DERIVED INHIBITORS OF EGFR AND HER2” (The Research Foundation for the State University of New York, priority 2023, published 2026) can be followed below.

SMILES strings stand for the structures.

In one series the target is BRAF(V600E) (Homo sapiens, UniProt P15056, V600E). The experiment in a line: KINOMEscan. It counts as binding. Conditions: 1 μM of compound 4; read-out: POC.
The next series concerns the target T1, TRKB (Homo sapiens, UniProt Q16620).
T1 construct: purchased Eurofins DiscoverX Corporation
The experiment in a line: KINOMEscan. The note with it: 1 μM of compound 4; read-out: POC. Format: binding.

The target in another series is BRSK2 (Homo sapiens, UniProt Q8IWQ3). The experiment in a line: KINOMEscan. It counts as binding. The note with it: 1 μM of compound 4; read-out: POC.
BRSK2, sequence (Q8IWQ3 whole entry): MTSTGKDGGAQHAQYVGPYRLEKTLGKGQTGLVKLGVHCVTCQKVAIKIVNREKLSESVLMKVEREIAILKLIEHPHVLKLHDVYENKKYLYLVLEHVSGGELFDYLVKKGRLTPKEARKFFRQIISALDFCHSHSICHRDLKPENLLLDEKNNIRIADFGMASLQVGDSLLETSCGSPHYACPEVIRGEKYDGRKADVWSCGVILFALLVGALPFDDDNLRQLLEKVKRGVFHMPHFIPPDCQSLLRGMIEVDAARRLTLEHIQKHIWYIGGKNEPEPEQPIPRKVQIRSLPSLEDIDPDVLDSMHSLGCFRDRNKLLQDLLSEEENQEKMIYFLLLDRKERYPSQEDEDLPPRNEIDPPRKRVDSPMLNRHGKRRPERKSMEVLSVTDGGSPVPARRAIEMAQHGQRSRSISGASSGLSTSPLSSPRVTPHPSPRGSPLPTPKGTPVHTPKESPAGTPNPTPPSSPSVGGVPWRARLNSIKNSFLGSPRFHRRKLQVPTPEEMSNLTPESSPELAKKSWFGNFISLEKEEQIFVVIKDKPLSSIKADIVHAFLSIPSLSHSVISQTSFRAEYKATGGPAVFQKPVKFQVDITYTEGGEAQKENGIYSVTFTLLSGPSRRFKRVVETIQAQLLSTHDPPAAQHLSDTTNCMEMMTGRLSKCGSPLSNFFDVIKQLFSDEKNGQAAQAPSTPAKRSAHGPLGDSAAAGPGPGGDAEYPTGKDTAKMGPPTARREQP
For the next series, the target named is MST2 (Homo sapiens, UniProt Q13188). The experiment in a line: KINOMEscan. The note with it: 1 μM of compound 4; read-out: POC. It counts as binding.
The target in another series is T2, HIPK4 (Homo sapiens, UniProt Q8NE63).
T2 construct: purchased Eurofins DiscoverX Corporation
The experiment in a line: KINOMEscan. Format: binding. The note with it: 1 μM of compound 4; read-out: POC.

The nature of series [1]: Metabolic stability in Human Liver Microsomes (HLM). It counts as in vitro ADME. As to the method:
Metabolic stability in Human Liver Microsomes (HLM). Pooled liver microsomes from humans (male) were purchased from Sekisui XenoTech, LLC, Kansas City, KS, USA. Metabolic stability assays were performed in the presence of an NADPH-regenerating system consisting of 5 mM glucose-6-phosphate, 5 U/mL glucose-6-phosphate dehydrogenase, and 1 mM NADP^+. Liver microsomes (20 mg/mL), NADPH-regenerating system, and 4 mM MgCl2·6 H2O in 0.1 M TRIS-HCl-buffer (pH 7.4) were preincubated for 5 min at 37° C. and 750 rpm on a shaker. The reaction was started by adding the preheated compound at 10 mM resulting in a final concentration of 0.1 mM. The reaction was quenched at selected time points (0, 10, 20, 30, 60, and 120 min) by pipetting 100 μL of internal standard (ketoprofen) at a concentration of 150 μM in acetonitrile. The samples were vortexed for 30 s and centrifuged (21910 relative centrifugal force, 4° C., 20 min). The supernatant was used directly for LC-MS analysis. All compound incubations were conducted at least in triplicates. Additionally, a negative control containing BSA (20 mg/mL) instead of liver microsomes and a positive control using verapamil instead of compound were performed. A limit of 1% organic solvent during incubation was not exceeded. […]

The target of the next series is T3, FGFR3(G697C) (Homo sapiens, UniProt P22607, G697C).
T3 construct: purchased Eurofins DiscoverX Corporation
The experiment in a line: KINOMEscan. Format: binding. Conditions: 1 μM of compound 4; read-out: POC.

The target in another series is T4, TRKC (Homo sapiens, UniProt Q16288).
T4 construct: purchased Eurofins DiscoverX Corporation
The experiment in a line: KINOMEscan. Format: binding. Conditions: 1 μM of compound 4; read-out: POC.

Series [2] has as its target T5, EGFR(L747-T751del + Sins) (Homo sapiens, UniProt P00533, DEL747-750/T751S).
T5 construct: purchased Eurofins DiscoverX (KINOMEscan service)
The experiment in a line: KINOMEscan. Format: binding. The note with it: 1 μM of compound 4; read-out: POC.

Another series addresses T6, EPHB3 (Homo sapiens, UniProt P54753).
T6 construct: purchased Eurofins DiscoverX (KINOMEscan service)
The experiment in a line: KINOMEscan. It counts as binding. Conditions: 1 μM of compound 4; read-out: POC.

The target in a further series is PIK3C2B (Homo sapiens, UniProt O00750). The experiment in a line: KINOMEscan. Format: binding. Conditions: 1 μM of compound 4; read-out: POC.
A further series deals with CAMK2A (Homo sapiens, UniProt Q9UQM7). The experiment in a line: KINOMEscan. Format: binding. The note with it: 1 μM of compound 4; read-out: POC.
CAMK2A, sequence (Q9UQM7 whole entry): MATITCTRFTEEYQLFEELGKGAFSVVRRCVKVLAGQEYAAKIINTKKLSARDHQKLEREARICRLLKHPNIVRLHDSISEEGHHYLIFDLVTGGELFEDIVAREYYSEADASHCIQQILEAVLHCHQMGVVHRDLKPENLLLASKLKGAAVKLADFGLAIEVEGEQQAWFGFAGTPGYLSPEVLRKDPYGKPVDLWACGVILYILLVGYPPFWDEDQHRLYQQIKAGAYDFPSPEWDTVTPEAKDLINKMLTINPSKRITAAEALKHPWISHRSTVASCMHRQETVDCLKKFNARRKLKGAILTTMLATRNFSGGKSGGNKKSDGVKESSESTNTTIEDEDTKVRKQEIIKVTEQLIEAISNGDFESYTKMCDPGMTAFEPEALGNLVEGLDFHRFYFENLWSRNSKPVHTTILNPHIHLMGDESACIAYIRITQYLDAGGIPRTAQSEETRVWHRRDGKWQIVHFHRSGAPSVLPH
The next series relates to FLT3(ITD + F691L). The experiment in a line: KINOMEscan. Format: binding. Conditions: 1 μM of compound 4.
The target in series [3] is T7, RSK4(Kin.Dom.2-C-terminal) (Homo sapiens, UniProt Q9UK32).
T7 construct: RSK4(Kin.Dom.2-C-terminal); purchased Eurofins DiscoverX (KINOMEscan service)
T7 sequence (Q9UK32 426-683 limits assumed): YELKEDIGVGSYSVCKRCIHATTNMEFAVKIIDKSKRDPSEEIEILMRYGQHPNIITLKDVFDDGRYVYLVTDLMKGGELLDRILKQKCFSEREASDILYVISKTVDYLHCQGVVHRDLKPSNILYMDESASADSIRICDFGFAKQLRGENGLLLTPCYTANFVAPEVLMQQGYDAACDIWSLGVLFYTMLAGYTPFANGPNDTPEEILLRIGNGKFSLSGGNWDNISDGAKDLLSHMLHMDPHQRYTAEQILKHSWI
The experiment in a line: KINOMEscan. Conditions: 1 μM of compound 4; read-out: POC. It counts as binding.

The next series concerns the target JNK3 (Homo sapiens, UniProt P53779). The experiment in a line: KINOMEscan. It counts as binding. The note with it: 1 μM of compound 4; read-out: POC.
Series [4] deals with T8, TYK2(JH1domain-catalytic) (Homo sapiens, UniProt P29597).
T8 construct: TYK2(JH1domain-catalytic); purchased Eurofins DiscoverX
The experiment in a line: KINOMEscan. Conditions: 1 μM of compound 4; read-out: POC. It counts as binding.

Another series has as its target T9, OSR1 (Homo sapiens, UniProt O95747).
T9 construct: purchased Eurofins DiscoverX Corporation (KINOMEscan)
The experiment in a line: KINOMEscan. Format: binding. The note with it: 1 μM of compound 4; read-out: POC.

For a further series, the target named is T10, TYRO3 (Homo sapiens, UniProt Q06418).
T10 construct: purchased Eurofins DiscoverX
The experiment in a line: KINOMEscan. Format: binding. The note with it: 1 μM of compound 4; read-out: POC.

A further series addresses T11, FRK (Homo sapiens, UniProt P42685).
T11 construct: purchased Eurofins DiscoverX Corporation
The experiment in a line: KINOMEscan. Format: binding. Conditions: 1 μM of compound 4; read-out: POC.

A further series deals with CAMK1 (Homo sapiens, UniProt Q14012). The experiment in a line: KINOMEscan. Format: binding. Conditions: 1 μM of compound 4; read-out: POC.
CAMK1, sequence (Q14012 whole entry): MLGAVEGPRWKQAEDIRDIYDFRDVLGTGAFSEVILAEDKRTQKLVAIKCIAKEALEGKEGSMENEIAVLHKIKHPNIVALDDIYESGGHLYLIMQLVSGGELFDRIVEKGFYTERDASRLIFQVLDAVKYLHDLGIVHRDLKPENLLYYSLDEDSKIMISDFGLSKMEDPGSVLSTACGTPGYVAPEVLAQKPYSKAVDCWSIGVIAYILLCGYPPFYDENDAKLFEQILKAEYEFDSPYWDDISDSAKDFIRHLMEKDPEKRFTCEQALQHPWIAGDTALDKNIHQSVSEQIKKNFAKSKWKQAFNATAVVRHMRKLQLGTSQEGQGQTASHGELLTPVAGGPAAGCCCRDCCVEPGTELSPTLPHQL
The target in another series is PKN1 (Homo sapiens, UniProt Q16512). The experiment in a line: KINOMEscan. Format: binding. The note with it: 1 μM of compound 4; read-out: POC.
Another series deals with T12, EGFR(L861Q) (Homo sapiens, UniProt P00533, L861Q).
T12 construct: purchased Eurofins DiscoverX (KINOMEscan service)
The experiment in a line: KINOMEscan. Format: binding. The note with it: 1 μM of compound 4; read-out: POC.

Another series has as its target MST1R (Homo sapiens, UniProt Q04912). The experiment in a line: KINOMEscan. Format: binding. The note with it: 1 μM of compound 4; read-out: POC.
For the next series, the target named is KIT(V559D + V654A) (Homo sapiens, UniProt P10721, V559D/V654A). The experiment in a line: KINOMEscan. Format: binding. The note with it: 1 μM of compound 4; read-out: POC.
KIT(V559D + V654A), sequence (P10721 26-976 V559D/V654A): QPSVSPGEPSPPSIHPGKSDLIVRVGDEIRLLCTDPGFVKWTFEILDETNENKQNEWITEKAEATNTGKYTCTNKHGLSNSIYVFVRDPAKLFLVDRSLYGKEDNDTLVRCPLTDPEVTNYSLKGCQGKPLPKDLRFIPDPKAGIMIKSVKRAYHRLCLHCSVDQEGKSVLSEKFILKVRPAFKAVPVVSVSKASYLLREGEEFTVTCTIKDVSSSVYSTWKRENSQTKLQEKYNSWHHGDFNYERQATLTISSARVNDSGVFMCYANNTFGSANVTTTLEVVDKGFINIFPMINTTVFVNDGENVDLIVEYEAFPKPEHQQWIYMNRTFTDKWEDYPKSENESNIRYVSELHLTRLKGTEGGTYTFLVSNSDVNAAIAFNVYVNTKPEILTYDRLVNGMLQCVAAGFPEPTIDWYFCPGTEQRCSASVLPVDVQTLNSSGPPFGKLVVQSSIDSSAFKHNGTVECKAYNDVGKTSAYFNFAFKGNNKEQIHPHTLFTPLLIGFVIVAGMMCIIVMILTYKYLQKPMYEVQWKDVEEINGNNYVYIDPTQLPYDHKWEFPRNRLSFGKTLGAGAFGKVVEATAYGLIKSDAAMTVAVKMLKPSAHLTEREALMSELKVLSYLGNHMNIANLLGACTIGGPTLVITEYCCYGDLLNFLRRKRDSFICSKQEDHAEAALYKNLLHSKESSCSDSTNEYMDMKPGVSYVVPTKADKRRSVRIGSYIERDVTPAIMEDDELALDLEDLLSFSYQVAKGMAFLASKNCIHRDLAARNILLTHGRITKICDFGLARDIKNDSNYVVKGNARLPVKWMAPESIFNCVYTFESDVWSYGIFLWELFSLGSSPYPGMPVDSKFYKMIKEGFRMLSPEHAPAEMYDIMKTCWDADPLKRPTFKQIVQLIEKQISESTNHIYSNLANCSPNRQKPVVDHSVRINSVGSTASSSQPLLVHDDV

BRAF(V600E), sequence (P15056 whole entry V600E): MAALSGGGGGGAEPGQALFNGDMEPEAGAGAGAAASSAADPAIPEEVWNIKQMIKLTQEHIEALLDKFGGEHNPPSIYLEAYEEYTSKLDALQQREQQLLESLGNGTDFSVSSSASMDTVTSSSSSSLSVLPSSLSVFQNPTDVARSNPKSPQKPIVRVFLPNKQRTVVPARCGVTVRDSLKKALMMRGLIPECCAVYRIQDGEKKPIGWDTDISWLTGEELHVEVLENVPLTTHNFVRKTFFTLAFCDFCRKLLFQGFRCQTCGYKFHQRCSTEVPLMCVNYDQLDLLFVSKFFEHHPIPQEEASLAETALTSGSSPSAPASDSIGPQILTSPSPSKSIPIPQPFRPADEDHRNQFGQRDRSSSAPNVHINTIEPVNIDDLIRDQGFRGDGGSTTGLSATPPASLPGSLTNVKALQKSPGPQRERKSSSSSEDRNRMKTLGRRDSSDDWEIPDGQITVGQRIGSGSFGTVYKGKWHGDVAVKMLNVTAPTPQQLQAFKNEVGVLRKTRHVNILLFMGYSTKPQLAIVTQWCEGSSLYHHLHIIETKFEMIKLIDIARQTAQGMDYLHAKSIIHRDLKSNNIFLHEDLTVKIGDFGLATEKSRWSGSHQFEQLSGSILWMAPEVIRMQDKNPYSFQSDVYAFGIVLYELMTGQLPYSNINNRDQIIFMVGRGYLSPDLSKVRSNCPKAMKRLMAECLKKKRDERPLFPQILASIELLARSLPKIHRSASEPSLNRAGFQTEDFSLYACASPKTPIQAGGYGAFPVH
T9 sequence (O95747 whole entry): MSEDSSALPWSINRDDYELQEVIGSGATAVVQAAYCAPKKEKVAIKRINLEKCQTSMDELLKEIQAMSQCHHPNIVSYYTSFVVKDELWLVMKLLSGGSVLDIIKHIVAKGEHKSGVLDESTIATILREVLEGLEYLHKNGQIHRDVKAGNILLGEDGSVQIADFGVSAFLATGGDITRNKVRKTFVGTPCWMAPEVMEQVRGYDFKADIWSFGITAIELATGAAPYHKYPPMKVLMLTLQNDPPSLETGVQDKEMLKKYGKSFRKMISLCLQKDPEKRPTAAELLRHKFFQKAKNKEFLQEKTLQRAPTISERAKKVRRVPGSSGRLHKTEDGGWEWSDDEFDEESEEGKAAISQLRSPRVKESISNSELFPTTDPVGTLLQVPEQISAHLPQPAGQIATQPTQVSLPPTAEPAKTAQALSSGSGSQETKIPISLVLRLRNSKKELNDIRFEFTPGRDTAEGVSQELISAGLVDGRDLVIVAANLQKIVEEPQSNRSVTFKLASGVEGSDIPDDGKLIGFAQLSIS
T11 sequence (P42685 whole entry): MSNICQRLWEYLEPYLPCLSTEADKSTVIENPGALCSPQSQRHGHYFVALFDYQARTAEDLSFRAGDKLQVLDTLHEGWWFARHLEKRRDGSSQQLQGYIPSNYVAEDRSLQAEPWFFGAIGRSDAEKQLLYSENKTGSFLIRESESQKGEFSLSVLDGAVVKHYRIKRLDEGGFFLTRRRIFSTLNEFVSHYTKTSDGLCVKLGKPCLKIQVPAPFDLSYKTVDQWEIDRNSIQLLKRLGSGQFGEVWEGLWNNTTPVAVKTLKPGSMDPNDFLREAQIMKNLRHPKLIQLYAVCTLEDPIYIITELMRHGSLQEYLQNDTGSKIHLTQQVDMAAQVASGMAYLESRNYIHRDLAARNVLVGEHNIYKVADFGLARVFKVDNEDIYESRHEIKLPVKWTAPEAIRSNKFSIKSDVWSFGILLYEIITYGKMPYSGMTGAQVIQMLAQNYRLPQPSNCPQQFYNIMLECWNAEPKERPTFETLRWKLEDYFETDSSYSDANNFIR
T5 sequence (P00533 with tags, fused parts or gaps DEL747-750/T751S limits assumed): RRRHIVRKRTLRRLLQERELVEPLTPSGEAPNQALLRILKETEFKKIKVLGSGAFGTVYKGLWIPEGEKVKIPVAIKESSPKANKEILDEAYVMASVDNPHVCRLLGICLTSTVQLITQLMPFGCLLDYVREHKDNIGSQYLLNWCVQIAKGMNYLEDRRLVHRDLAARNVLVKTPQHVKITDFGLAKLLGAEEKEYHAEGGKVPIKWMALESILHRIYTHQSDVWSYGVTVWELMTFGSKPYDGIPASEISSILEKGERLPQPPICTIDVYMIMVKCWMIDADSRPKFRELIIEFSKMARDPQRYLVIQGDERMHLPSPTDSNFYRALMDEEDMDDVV

As to `C=CC(=O)Nc1ccc(OC)c(Nc2cc(-c3[nH]c(CC)nc3-c3cccc(NC(=O)c4cccc5c4NC(=O)c4ccccc4N5)c3)ccn2)c1` [Compound 4, N-(3-(5-(2-((5-Acrylamido-2-methoxyphenyl)amino)pyridin-4-yl)-2-ethyl-1H-imidazol-4-yl)phenyl)-11-oxo-10,11-dihydro-5H-dibenzo[b,e][1,4]diazepine-9-carboxamide], the remaining binding at 1 µM was 100% at BRAF(V600E); 100% on TRKB; 93% on BRSK2; 14% at MST2; 92% on HIPK4; 100% at FGFR3(G697C). The remaining binding at 1 µM at TRKC is 87%; in [2], 7.6%; at EPHB3, 100%; on PIK3C2B it was 74%; on CAMK2A, 65%; in series [3] it was 80%. The remaining binding at 1 µM at JNK3 stood at 53%; in series [4] it was 91%; at OSR1, 89%; on TYRO3 it was 32%; at FRK, 20%; on CAMK1, 81%. The remaining binding at 1 µM on PKN1 turned out to be 88%; on EGFR(L861Q), 2.7%; at MST1R, 85%; on KIT(V559D + V654A) it was 93%. Moreover, the “Metabolic stability in liver microsomes” value in [1] is recorded as “metabolically stable”. For the same molecule, in the series on FLT3(ITD + F691L), the POC is on record as 79.
